These results are taken from PMC11067034 (Proceedings of the National Academy of Sciences of the …, 2024).

The experiment has as its target T1, human CTF18-RFC (ATPγS sites in CTF18/A, RFC2/B, RFC5/C, RFC4/D) (Homo sapiens, UniProt P35249+P35250+P40937+Q8WVB6).
T1 construct: gene CHTF18; heptameric CTF18-RFC2-5-DCC1-CTF8 from baculovirus/insect cells, intact complex; DCC1 and CTF8 invisible in maps; mixed with human PCNA (from E. coli BL21) and two-tailed DNA; with Replication factor C subunit 3; Sister chromatid cohesion protein DCC1; Chromosome transmission fidelity protein 8 homolog; Proliferating cell nuclear antigen
The experiment can be described thus: cryo-EM structure. Particulars: Mg2+-coordinated; ATPase sites of CTF18, RFC2, RFC5 and RFC4 (arginine fingers from adjacent subunits); 0.5 mM ATPγS, PCNA and DNA, 1 mM Mg acetate, pH 7.5, room temperature. It counts as binding.

In the case of `Nc1ncnc2c1ncn2[C@@H]1O[C@H](COP(=O)(O)OP(=O)(O)OP(O)(O)=S)[C@@H](O)[C@H]1O` [ATPγS], the cryo-EM structure result was “We identified four ATPγS molecules in the AAA+ nucleotide binding pockets of subunits CTF18/A, RFC2/B, RFC5/C”.
